The subject of assay [1] is doxorubicin-induced aged C57BL6J mice. The assay is described as follows: Thrombosis (Serpine1, Plau, TIMP1 mRNA, tail bleeding time) in doxorubicin-aged mice, Example 22-10, Table 39. The format is in vivo, mouse. The settings on record: for Plau mRNA / Serpine1 mRNA / TIMP1 mRNA: qRT-PCR, doxorubicin-induced aged mice, amount after aging calculated as 100%; for Tail amputation bleeding time: tail incised 5 mm from the tip, saline 37° C., untreated 51 (±3.6). The method, then: Eight-week-old male C57BL6J mice (KRIBB Laboratory Animal Resource Center) were acclimated to the experimental environment for one week. Afterwards, the anticancer agent doxorubicin was administered intraperitoneally at a concentration of 10 mg/kg, inducing aging for more than 10 days. The aging-induced mice were randomly assigned to experimental and control groups. LX-403 was mixed with a 10% ethanol solution of PEG400 and administered orally at a concentration of 25 mg/kg or intradermally at a concentration of 1 μM for 21 days. LX-1801 was mixed in distilled water with 4% DMSO, 30% PEG300, and 5% Tween80 and administered intradermally at a concentration of 0.4 μM daily for 21 days. LX-2001 was mixed in PBS and administered intradermally at a concentration of 2 μM daily for 21 days. LX-2002 was mixed in distilled water with 4% DMSO, 30% PEG300, and 5% Tween80 and administered intradermally at a concentration of 2 μM daily for 21 days. […] LX-2005 was mixed in distilled water with 4% DMSO, 30% PEG300, and 5% Tween80 and administered intradermally at a concentration of 90 μM daily for 21 days. LX-2007 was mixed in distilled water with 4% DMSO, 30% PEG300, and 5% Tween80 and administered intradermally at a concentration of 90 μM daily for 21 days. […] LX-3002 was mixed in distilled water with 4% DMSO, 30% PEG300, and 5% Tween80 and administered orally at a concentration of 10 mg/kg daily for 21 days. […] LX-5411 was mixed in 5% phosphate-buffered saline (PBS) and administered orally at a concentration of 10 mg/kg daily for 21 days or intradermally at a concentration of 3 μM. LX-5701 was mixed in PBS and administered orally at a concentration of 360 mg/kg daily for 21 days. LX-6807 was mixed in saline and administered intraperitoneally at a concentration of 1 mg/kg daily for 21 days. The control group received only the solution in the same volume. After the end of drug administration, the methods described in each example below were performed.
Using cDNA synthesized using the same method as in Example 7-6 of WO2023-085787 A1, qRT-PCR was performed and analyzed for the liver-produced senescence-associated secretory factor (SASP) and hemostasis-related factors like Serpine1 (PAI1), Plau (Urokinase), and TIMP1. To determine whether the treatment affects in vivo hemostasis, tail bleeding time was analyzed in mice induced to age by chemotherapy. Specifically, for tail bleeding analysis, mice were anesthetized, and the tail was incised 5 mm from the tip with a razor blade. The bleeding tail was then placed in a 15 ml test tube containing saline preheated to 37° C., and the time until blood flow stopped was measured. The bleeding time was determined when bleeding stopped for 10 seconds. […] The qPT-PCR results were compared with the amounts of each factor after aging was induced, calculating the amount of each factor as 100% and then treating it with the test compound.

Assay [2] concerns naturally aged mice. As to the kind of experiment: p16, MMP3, IL6 mRNA in liver of naturally aged mice (qRT-PCR), Example 15. The settings on record: untreated aged = 100%, 5 days; for p16 mRNA: LX-405 10 mg/kg ip, LX-801 100 mg/kg ip, LX-1102 100 mg/kg po, LX-1801 50 mg/kg ip, LX-2101 10 mg/kg ip, LX-3403 100 μg ip; for IL6 mRNA / MMP3 mRNA: doses as p16 mRNA. The format is in vivo, mouse. How it is done: In the same manner as in Example 7-1 of WO2023-085787 A1, naturally aged mice were administered LX-405 (5% DMSO in PBS solution, 10 mg/kg, intraperitoneal administration), LX-801 (PBS, 100 mg/kg, intraperitoneal administration), LX-1102 (0.5% CMC-Na solution, 100 mg/kg, oral administration), LX-1801 (PBS, 50 mg/kg, intraperitoneal administration), LX-2101 (0.5% CMC-Na solution, 10 mg/kg, intraperitoneal administration), and LX-3403 (mouse anti-PD-1 antibody (BioXcell), 100 μg, intraperitoneal administration) for 5 days under the following conditions. The control group was administered only the solution in the same volume. After drug administration was completed, the method described in each Example below was performed. The mouse was sacrificed in the same manner as Example 7-2 and 7-6 of WO2023-085787 A1. Total RNA was extracted from liver tissue, and qRT-PCR was performed and analyzed using synthesized cDNA. […] The mRNA amounts of p16, MMP3, and IL6 after natural aging were induced were calculated as 100% and compared them with the mRNA amounts of p16, MMP3, and IL6 after treatment with the test compound. Furthermore, an open field test was performed to analyze aging-related frailty in mice using the same method as Example 7-7 of WO2023-085787 A1. […] The amount of activity evaluated after inducing aging was calculated as 100% and compared it with the amount of activity evaluated after treatment with the test compound.
On the technique in general: Real-time PCR tracks product formation cycle by cycle.

As to `Cc1cccc([C@H](C)c2cnc[nH]2)c1C` [LX-6807, Dexmedetomidine], in assay [1], the “Plau mRNA” value is listed as 45 (±3.6) %, the “Serpine1 mRNA” value is 31 (±1.9) %, the “TIMP1 mRNA” value is recorded as 59 (±1.9) % and the “Tail amputation bleeding time” value is reported as 93 (±6.4) sec.

Take `CC1(C)CC[C@]2(NC(=O)C(C)(F)F)CC[C@]3(C)[C@H](C(=O)C=C4[C@@]5(C)C=C(C#N)C(=O)C(C)(C)[C@@H]5CC[C@]43C)[C@@H]2C1` [LX-2101, Omaveloxolone]: in assay [2], the “p16 mRNA” value was 62.5 (±13.1) %, the “IL6 mRNA” value is 64.1 (±8.8) % and the “MMP3 mRNA” value was 53.6 (±14.3) %.

For the compound `O=C1C2CCN(CC2)C1CNC(=O)C(F)(F)F` (stereo not shown) [LX-5701], in assay [1], the “Plau mRNA” value is 53 (±13.9) %, the “Serpine1 mRNA” value was 45 (±20.1) %, the “TIMP1 mRNA” value is given as 53 (±11.2) % and the “Tail amputation bleeding time” value is 89 (±15.2) sec.

On to Tocofersolan [LX-3001], for which, in assay [1], the “Plau mRNA” value is 69 (±2.2) %, the “Serpine1 mRNA” value is on record as 76 (±2.1) %, the “TIMP1 mRNA” value is listed as 73 (±3.1) % and the “Tail amputation bleeding time” value is recorded as 72 (±2.6) sec.

On to `S=C(N/N=C1\CCCc2cccnc21)N1CCN(c2ccccn2)CC1` [LX-801], for which, in assay [2], the “p16 mRNA” value is 69.4 (±6.9) %, the “IL6 mRNA” value was 71.1 (±1.8) % and the “MMP3 mRNA” value was 76.5 (±4.2) %.

Consider `CCCC\C=C/C=C/C=C\CCCCCCCC(=O)O` [LX-2707, Punicic acid], for which, in assay [1], the “Plau mRNA” value was 65 (±1.8) %, the “Serpine1 mRNA” value was 52 (±3.5) %, the “TIMP1 mRNA” value is listed as 46 (±1.5) % and the “Tail amputation bleeding time” value is 80 (±4.3) sec.

For the compound `C[C@@H]1CC[C@@]23C[C@H](O)C(=O)[C@@]2(O)[C@]1(C)[C@H](OC(=O)CCl)C[C@@H](C1=CCn2c(=O)n(-c4ccccc4)c(=O)n2C1)[C@@H]3C` [LX-1801, (2S,3aS,4S,5R,7R,8S,8aS,11R)-7-(1,3-Dioxo-2-phenyl-2,3,5,8-tetrahydro-1H-[1,2,4]triazolo[1,2-a]pyridazin-6-yl)-2,3a-dihydroxy-4,8,11-trimethyl-3-oxooctahydro-1H-4,8a-propanoazulen-5-yl 2-Chloroacetate], in assay [2], the “p16 mRNA” value was 77.4 (±5.2) %, the “IL6 mRNA” value is recorded as 56.8 (±19.3) % and the “MMP3 mRNA” value is 47.1 (±15.6) %.

Take `COC(=O)c1ccc([C@H]2c3[nH]c4ccccc4c3C[C@H](C(=O)OC)N2C(=O)CCl)cc1` [LX-405]: in assay [2], the “p16 mRNA” value is on record as 76.9 (±6.8) %, the “IL6 mRNA” value is on record as 73.6 (±7.4) % and the “MMP3 mRNA” value was 64.7 (±11.5) %.

(Values after patent US20260306460A1, “COMPOSITION FOR REMOVING AND INHIBITING SENESCENT CELLS, AND USES THEREOF” (LIFECEUTIX CO., LTD., priority 2023, published 2026).)
